Data reported in the NIST ThermoML archive (doi:10.1016/j.jct.2005.09.004).
Numbers after ± are expanded uncertainties.

Key:
[1] = refractive index (Na D-line) (dimensionless); φn = volume fraction of the nth substance listed; conditions: 101 kPa, Liquid, Standard Abbe refractometry
[2] = xn = mol fraction of the nth substance listed; conditions: for surface tension liquid-gas: Drop volume; for mass density: 101 kPa, Liquid

A refractive index ([1]; 283.15 K, φ1 = 0.0478) of 1.4305 ± 0.00031, a refractive index ([1]; 283.15 K, φ1 = 0.075) of 1.42987 ± 0.00031 and a refractive index ([1]; 283.15 K, φ1 = 0.1601) of 1.42827 ± 0.00031 were found for `C1COCCO1` [1,4-dioxane] + C1CCCCC1 in this work. It also gave a refractive index ([1]; 283.15 K, φ1 = 0.251) of 1.4271 ± 0.00031, a refractive index ([1]; 283.15 K, φ1 = 0.3438) of 1.42629 ± 0.00031 and a refractive index ([1]; 283.15 K, φ1 = 0.4452) of 1.42577 ± 0.00031. For the same compound, the refractive index ([1]; 283.15 K, φ1 = 0.5448) was 1.42557 ± 0.00031, the refractive index ([1]; 283.15 K, φ1 = 0.649) was 1.42556 ± 0.00031 and the refractive index ([1]; 283.15 K, φ1 = 0.756) was 1.42585 ± 0.00031. For the same compound, the refractive index ([1]; 283.15 K, φ1 = 0.8802) was 1.42643 ± 0.00031, the refractive index ([1]; 283.15 K, φ1 = 0.9414) was 1.4268 ± 0.00031 and the refractive index ([1]; 298.15 K, φ1 = 0.0319) was 1.4226 ± 0.00031. For the same compound, the refractive index ([1]; 298.15 K, φ1 = 0.0849) was 1.42144 ± 0.00031, the refractive index ([1]; 298.15 K, φ1 = 0.1562) was 1.42012 ± 0.00031 and the refractive index ([1]; 298.15 K, φ1 = 0.2528) was 1.41893 ± 0.00031. The refractive index ([1]; 298.15 K, φ1 = 0.3465) was 1.41821 ± 0.00031, the refractive index ([1]; 298.15 K, φ1 = 0.4415) was 1.4178 ± 0.00031 and the refractive index ([1]; 298.15 K, φ1 = 0.5389) was 1.4177 ± 0.00031. For the same compound, the refractive index ([1]; 298.15 K, φ1 = 0.651) was 1.41786 ± 0.00031, the refractive index ([1]; 298.15 K, φ1 = 0.7604) was 1.41827 ± 0.00031 and the refractive index ([1]; 298.15 K, φ1 = 0.8701) was 1.41893 ± 0.00031. It also gave a refractive index ([1]; 298.15 K, φ1 = 0.9439) of 1.41949 ± 0.00031, a refractive index ([1]; 313.15 K, φ1 = 0.0381) of 1.41404 ± 0.00031 and a refractive index ([1]; 313.15 K, φ1 = 0.0816) of 1.41308 ± 0.00031. For the same compound, the refractive index ([1]; 313.15 K, φ1 = 0.1625) was 1.41168 ± 0.00031, the refractive index ([1]; 313.15 K, φ1 = 0.268) was 1.41055 ± 0.00031 and the refractive index ([1]; 313.15 K, φ1 = 0.3476) was 1.41002 ± 0.00031. The refractive index ([1]; 313.15 K, φ1 = 0.4399) was 1.40973 ± 0.00031, the refractive index ([1]; 313.15 K, φ1 = 0.5368) was 1.40971 ± 0.00031 and the refractive index ([1]; 313.15 K, φ1 = 0.6463) was 1.41003 ± 0.00031. It also gave a refractive index ([1]; 313.15 K, φ1 = 0.7626) of 1.41069 ± 0.00031, a refractive index ([1]; 313.15 K, φ1 = 0.8682) of 1.41143 ± 0.00031 and a refractive index ([1]; 313.15 K, φ1 = 0.9462) of 1.4121 ± 0.00031. The surface tension liquid-gas ([2]; 283.15 K, x1 = 0.0684) was 26.1 ± 0.29 mN/m, the surface tension liquid-gas ([2]; 283.15 K, x1 = 0.1484) was 25.94 ± 0.29 mN/m and the surface tension liquid-gas ([2]; 283.15 K, x1 = 0.2267) was 25.85 ± 0.29 mN/m. For the same compound, the surface tension liquid-gas ([2]; 283.15 K, x1 = 0.2974) was 25.97 ± 0.29 mN/m, the surface tension liquid-gas ([2]; 283.15 K, x1 = 0.4402) was 26.2 ± 0.3 mN/m and the surface tension liquid-gas ([2]; 283.15 K, x1 = 0.5509) was 26.51 ± 0.3 mN/m. For the same compound, the surface tension liquid-gas ([2]; 283.15 K, x1 = 0.6578) was 27.08 ± 0.3 mN/m, the surface tension liquid-gas ([2]; 283.15 K, x1 = 0.7394) was 27.97 ± 0.31 mN/m and the surface tension liquid-gas ([2]; 283.15 K, x1 = 0.8115) was 29.3 ± 0.33 mN/m. The surface tension liquid-gas ([2]; 283.15 K, x1 = 0.9186) was 32 ± 0.35 mN/m, the surface tension liquid-gas ([2]; 283.15 K, x1 = 0.9738) was 33.93 ± 0.37 mN/m and the mass density ([2]; 283.15 K, x1 = 0.0502) was 796.53 ± 0.23 kg/m3. The mass density ([2]; 283.15 K, x1 = 0.0999) was 805.45 ± 0.22 kg/m3, the mass density ([2]; 283.15 K, x1 = 0.1953) was 823.9 ± 0.21 kg/m3 and the mass density ([2]; 283.15 K, x1 = 0.2899) was 843.69 ± 0.2 kg/m3. For the same compound, the mass density ([2]; 283.15 K, x1 = 0.3996) was 868.5 ± 0.18 kg/m3, the mass density ([2]; 283.15 K, x1 = 0.5017) was 893.36 ± 0.16 kg/m3 and the mass density ([2]; 283.15 K, x1 = 0.6007) was 919.28 ± 0.15 kg/m3. It also gave a mass density ([2]; 283.15 K, x1 = 0.699) of 946.87 ± 0.13 kg/m3, a mass density ([2]; 283.15 K, x1 = 0.7956) of 976.06 ± 0.12 kg/m3 and a mass density ([2]; 283.15 K, x1 = 0.8994) of 1009.7 ± 0.11 kg/m3. It also gave a mass density ([2]; 283.15 K, x1 = 0.9446) of 1025.26 ± 0.12 kg/m3, a surface tension liquid-gas ([2]; 298.15 K, x1 = 0.0684) of 25.1 ± 0.28 mN/m and a surface tension liquid-gas ([2]; 298.15 K, x1 = 0.1484) of 25.24 ± 0.29 mN/m. It also gave a surface tension liquid-gas ([2]; 298.15 K, x1 = 0.2267) of 25.29 ± 0.29 mN/m, a surface tension liquid-gas ([2]; 298.15 K, x1 = 0.2974) of 25.38 ± 0.29 mN/m and a surface tension liquid-gas ([2]; 298.15 K, x1 = 0.4402) of 25.72 ± 0.29 mN/m. For the same compound, the surface tension liquid-gas ([2]; 298.15 K, x1 = 0.5509) was 26.07 ± 0.29 mN/m, the surface tension liquid-gas ([2]; 298.15 K, x1 = 0.6578) was 26.62 ± 0.3 mN/m and the surface tension liquid-gas ([2]; 298.15 K, x1 = 0.7394) was 27.1 ± 0.3 mN/m. For the same compound, the surface tension liquid-gas ([2]; 298.15 K, x1 = 0.8115) was 28 ± 0.31 mN/m, the surface tension liquid-gas ([2]; 298.15 K, x1 = 0.9186) was 30.26 ± 0.34 mN/m and the surface tension liquid-gas ([2]; 298.15 K, x1 = 0.9738) was 31.99 ± 0.35 mN/m. The mass density ([2]; 298.15 K, x1 = 0.0535) was 782.54 ± 0.24 kg/m3, the mass density ([2]; 298.15 K, x1 = 0.1053) was 791.71 ± 0.23 kg/m3 and the mass density ([2]; 298.15 K, x1 = 0.1998) was 809.79 ± 0.22 kg/m3. It also gave a mass density ([2]; 298.15 K, x1 = 0.3003) of 830.58 ± 0.2 kg/m3, a mass density ([2]; 298.15 K, x1 = 0.4026) of 853.43 ± 0.19 kg/m3 and a mass density ([2]; 298.15 K, x1 = 0.5006) of 876.98 ± 0.17 kg/m3. It also gave a mass density ([2]; 298.15 K, x1 = 0.5971) of 901.85 ± 0.16 kg/m3, a mass density ([2]; 298.15 K, x1 = 0.7028) of 931.22 ± 0.14 kg/m3 and a mass density ([2]; 298.15 K, x1 = 0.8089) of 963.35 ± 0.12 kg/m3. The mass density ([2]; 298.15 K, x1 = 0.9038) was 994.24 ± 0.11 kg/m3, the mass density ([2]; 298.15 K, x1 = 0.9485) was 1009.6 ± 0.11 kg/m3 and the surface tension liquid-gas ([2]; 313.15 K, x1 = 0.0684) was 23.8 ± 0.27 mN/m. For the same compound, the surface tension liquid-gas ([2]; 313.15 K, x1 = 0.1484) was 24.23 ± 0.28 mN/m, the surface tension liquid-gas ([2]; 313.15 K, x1 = 0.2267) was 24.46 ± 0.28 mN/m and the surface tension liquid-gas ([2]; 313.15 K, x1 = 0.2974) was 24.71 ± 0.28 mN/m. It also gave a surface tension liquid-gas ([2]; 313.15 K, x1 = 0.4402) of 25.23 ± 0.29 mN/m, a surface tension liquid-gas ([2]; 313.15 K, x1 = 0.5509) of 25.7 ± 0.29 mN/m and a surface tension liquid-gas ([2]; 313.15 K, x1 = 0.6578) of 26.2 ± 0.3 mN/m. The surface tension liquid-gas ([2]; 313.15 K, x1 = 0.7394) was 26.62 ± 0.3 mN/m, the surface tension liquid-gas ([2]; 313.15 K, x1 = 0.8115) was 27.13 ± 0.3 mN/m and the surface tension liquid-gas ([2]; 313.15 K, x1 = 0.9186) was 28.62 ± 0.32 mN/m. The surface tension liquid-gas ([2]; 313.15 K, x1 = 0.9738) was 30.17 ± 0.34 mN/m, the mass density ([2]; 313.15 K, x1 = 0.0497) was 767.71 ± 0.25 kg/m3 and the mass density ([2]; 313.15 K, x1 = 0.102) was 776.79 ± 0.24 kg/m3. For the same compound, the mass density ([2]; 313.15 K, x1 = 0.1944) was 794 ± 0.23 kg/m3, the mass density ([2]; 313.15 K, x1 = 0.2926) was 813.99 ± 0.22 kg/m3 and the mass density ([2]; 313.15 K, x1 = 0.3973) was 837 ± 0.2 kg/m3. The mass density ([2]; 313.15 K, x1 = 0.4969) was 860.64 ± 0.18 kg/m3, the mass density ([2]; 313.15 K, x1 = 0.5992) was 886.73 ± 0.17 kg/m3 and the mass density ([2]; 313.15 K, x1 = 0.6988) was 914.22 ± 0.15 kg/m3. The mass density ([2]; 313.15 K, x1 = 0.7966) was 943.29 ± 0.13 kg/m3, the mass density ([2]; 313.15 K, x1 = 0.8972) was 975.49 ± 0.12 kg/m3 and the mass density ([2]; 313.15 K, x1 = 0.9505) was 993.41 ± 0.11 kg/m3.
